For one assay, the target named is T1, human V-1 receptor (V1a) (Homo sapiens, UniProt P37288).
T1 construct: expressed in transfected cells; host or cells: HEK-293 (membranes)
Description: In vitro recombinant vasopressin receptor binding assay (3H-arginine vasopressin displacement), V1a. Conditions: 0.2 μM test compound, cloned human receptor membranes from HEK-293 cells; for inhibition at 0.2 µM: read-out: Binding V1a (% inhib @ 0.2 μM). The procedure:
(§1) Compounds were assessed for their ability to displace ^3H-arginine vasopressin from the human V-1 or V-2 receptor in HEK-293 cells. Assay buffer is 50 mM Tris-Cl, 5 mM MgCl2, 0.1% BSA (pH 7.5) containing 5 ug/ml of aprotinin, leupeptin, pepstatin, 50 ug/ml bacitracin, and 1 mM Pefabloc. ^3H-vasopressin is ^3H-arginine-8-vasopressin (68.5 Ci/mmol, final concentration in assay is 0.65-0.75 nM). Into wells of 96-well round bottom polypropylene plates were added buffer, test compound, membrane (containing cloned human V-1 or V-2 receptor), and ^3H-vasopressin. The reaction plates were allowed to sit at room temperature for one hour. The samples were filtered through Unifilter GF/C plates (presoaked in 0.3 polyethyleneimine). The plates were washed 5 times with cold physiological saline containing 0.05% Tween 20. After drying, the bottom of the filter plates were sealed and 0.025 ml of Microscint-20 was added to each filter. The top of the plate was sealed, and the plate was counted. Non-specific binding was determined by the addition of 1.25 uM arginine-8-vasopressin in those wells.

Assay [1] has as its target T2, human V2 receptor (Homo sapiens, UniProt P30518).
T2 construct: expressed in transfected cells; host or cells: HEK-293
The assay can be described thus: In vitro recombinant vasopressin receptor binding assay (3H-arginine vasopressin displacement), V2. As to conditions: for IC50: cloned human receptor membranes from HEK-293 cells. The procedure: as §1

Assay [2] has as its target T2, human V2 receptor. Description: Inhibition of AVP-induced cAMP accumulation in transfected HEK-293 cells expressing human V2 receptor. The class given is cell-based. Conditions: AVP 1 nM, HEK-293 expressing human V2, read-out: Functional V2 (IC50; μM). The procedure: HEK-293 cells were grown in DMEM media supplemented with 10% FBS and glutamine (Gibco BRL, Grand Island, N.Y.). Once transfected, the cells were passed biweekly by trypsinization and seeded into 96 well plates at 33,000 cells per well. HEK-293 were transfected with human V1a, V1b or V2 DNA using DMRIE-C reagent from Life Technologies, Inc., Grand Island, N.Y. Cells were tested for their responsiveness to vasopressin 48 h after transfection. Stable lines were generated by selecting cells grown in culture media containing geneticin (500 μg/mL, Life Technologies).
The accumulation of cAMP was measured in transfected HEK-293 expressing the human V2 receptor. The cells were cultured 4-7 d in 96-well plates. On the day of testing in this assay, cells were washed twice in assay media (DMEM/F12 containing 0.1% BSA). The cells were treated with the test compound for 5 min and then given AVP (1 nM) in assay media containing 1 mM isobutylmethylxanthine. After 5 min, 0.5 N HCl was added to disrupt the cells and solubilize cAMP. The cAMP content of 20 μL of the cell lysate in each well was measured using cAMP Flashplates (NEN Life Sciences). Data are expressed as pmol cAMP/well. While the assay is optimized to detect and quantitate antagonistic activity, agonistic activity would also be apparent at the higher concentrations of test compounds.
The data from the cAMP accumulation and the calcium mobilization assays are expressed as IC50 values as determined from dose response curves.
On the technique in general: cAMP levels reflect the balance of adenylyl cyclase and phosphodiesterase activity.

Where a name gives a salt, the structure may show the parent alone.

T2 sequence (P30518 whole entry): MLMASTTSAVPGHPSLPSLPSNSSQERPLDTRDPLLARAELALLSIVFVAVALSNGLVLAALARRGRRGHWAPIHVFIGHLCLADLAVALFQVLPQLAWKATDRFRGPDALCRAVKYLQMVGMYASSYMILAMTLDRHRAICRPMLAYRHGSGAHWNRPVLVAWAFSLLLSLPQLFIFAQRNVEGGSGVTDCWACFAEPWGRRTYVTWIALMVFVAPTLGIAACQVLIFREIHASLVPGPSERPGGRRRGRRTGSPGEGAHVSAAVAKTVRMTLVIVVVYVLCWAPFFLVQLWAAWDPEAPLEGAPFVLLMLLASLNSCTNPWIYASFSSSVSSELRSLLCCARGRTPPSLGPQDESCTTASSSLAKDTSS
T1 sequence (P37288 whole entry): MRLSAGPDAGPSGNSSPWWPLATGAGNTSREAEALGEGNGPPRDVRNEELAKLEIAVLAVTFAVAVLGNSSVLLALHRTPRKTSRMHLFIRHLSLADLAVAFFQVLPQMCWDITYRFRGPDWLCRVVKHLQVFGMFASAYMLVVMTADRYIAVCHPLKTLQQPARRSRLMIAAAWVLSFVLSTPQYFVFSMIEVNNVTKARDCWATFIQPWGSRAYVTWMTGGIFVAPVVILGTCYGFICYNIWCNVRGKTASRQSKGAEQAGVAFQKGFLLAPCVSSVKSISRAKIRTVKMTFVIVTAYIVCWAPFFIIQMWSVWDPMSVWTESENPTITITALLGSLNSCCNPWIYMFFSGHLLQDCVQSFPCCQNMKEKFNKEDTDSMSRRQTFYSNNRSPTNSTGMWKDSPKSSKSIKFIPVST

Turning to `O=C(Nc1ccc(C(=O)N2C[C@@H](CO)N(Cc3ccccc3)Cc3ccccc32)c(Cl)c1)c1ccccc1-c1ccccc1` [Cpd 1, (S)-Biphenyl-2-carboxylic acid [4-(4-benzyl-3-hydroxymethyl-2,3,4,5-tetrahydro-benzo[e][1,4]diazepine-1-carbonyl)-3-chloro-phenyl]-amide], at human V-1 receptor (V1a), the inhibition at 0.2 µM turned out to be 1%. Moreover, the IC50 (as a rule, the concentration that gives 50% inhibition) on human V2 receptor [1] was 0.5 µM.
For the compound `CSC[C@@H]1CN(C(=O)c2ccc(NC(=O)c3ccccc3-c3ccccc3)cc2Cl)c2ccccc2CN1C` [Cpd 2, (S)-Biphenyl-2-carboxylic acid [3-chloro-4-(4-methyl-3-methylsulfanylmethyl-2,3,4,5-tetrahydrobenzo[e][1,4]diazepine-1-carbonyl)-phenyl]-amide], at human V-1 receptor (V1a), the inhibition at 0.2 µM stood at 0%. Also, the IC50 came out at 0.24 µM at human V2 receptor [1] and 0.28 µM on human V2 receptor [2].
The matching figures for `CN1Cc2ccccc2N(C(=O)c2ccc(NC(=O)c3ccccc3-c3ccccc3)cc2Cl)C[C@@H]1CN1CCCC1` [Cpd 3, (S)-Biphenyl-2-carboxylic acid [3-chloro-4-(4-methyl-3-pyrrolidin-1-ylmethyl-2,3,4,5-tetrahydrobenzo[e][1,4]diazepine-1-carbonyl)-phenyl]-amide ditrifluoroacetate]: 0%, 0.34 µM and 0.71 µM.
As for `CN1Cc2ccccc2N(C(=O)c2ccc(NC(=O)c3ccccc3-c3ccccc3)cc2Cl)C[C@H]1COC1CCCC1` [Cpd 4, (S)-Biphenyl-2-carboxylic acid [3-chloro-4-(3-cyclopentyloxymethyl-4-methyl-2,3,4,5-tetrahydrobenzo[e][1,4]diazepine-1-carbonyl)-phenyl]-amide trifluoroacetate], the inhibition at 0.2 µM on human V-1 receptor (V1a) stood at 0%; on human V2 receptor [1] (read-out: Binding V2 (% inhib @ 0.2 μM)) it was 22%. Moreover, the IC50 at human V2 receptor [2] was more than 10 µM.
As for `COC[C@@H]1CN(C(=O)c2ccc(NC(=O)c3ccccc3-c3ccccc3)cc2Cl)c2ccccc2CN1C` [Cpd 6, (S)-Biphenyl-2-carboxylic acid [3-chloro-4-(3-methoxymethyl-4-methyl-2,3,4,5-tetrahydrobenzo[e][1,4]diazepine-1-carbonyl)-phenyl]-amide trifluoroacetate], the inhibition at 0.2 µM on human V-1 receptor (V1a) is 0%. The IC50 on human V2 receptor [1] was determined as 0.066 µM; at human V2 receptor [2], 0.025 µM.
As for `CS(=O)(=O)N1Cc2ccccc2N(C(=O)c2ccc(NC(=O)c3ccccc3-c3ccccc3)cc2Cl)C[C@H]1CO` [Cpd 7, (S)-Biphenyl-2-carboxylic acid [3-chloro-4-(3-hydroxymethyl-4-methanesulfonyl-2,3,4,5-tetrahydrobenzo[e][1,4]diazepine-1-carbonyl)-phenyl]-amide], the inhibition at 0.2 µM at human V-1 receptor (V1a) stood at 4%. Moreover, the IC50 was 0.05 µM on human V2 receptor [1] and 0.02 µM on human V2 receptor [2].
For `CS(=O)(=O)OC[C@@H]1CN(C(=O)c2ccc(NC(=O)c3ccccc3-c3ccccc3)cc2Cl)c2ccccc2CN1S(C)(=O)=O` [Cpd 8, (S)-methanesulfonic acid 1 {4-[(biphenyl-2-carbonyl)-amino]-2chloro-benzoyl}-4-methanesulfonyl-2,3,4,5-tetrahydro-1H-benzo[e][1,4]diazepin-3-ylmethyl ester], the inhibition at 0.2 µM on human V-1 receptor (V1a) came out at 0%. Also, the IC50 at human V2 receptor [1] was found to be 0.4 µM; at human V2 receptor [2], 1.08 µM.
For the compound `CC(=O)OC[C@@H]1CN(C(=O)c2ccc(NC(=O)c3ccccc3-c3ccccc3)cc2Cl)c2ccccc2CN1C(C)=O` [Cpd 9, (S)-Acetic acid 4-acetyl-1-{4-[(biphenyl-2-carbonyl)-amino]-2-chloro-benzoyl}-2,3,4,5-tetrahydro-1H-benzo[e][1,4]diazepin-3-ylmethyl ester], on human V-1 receptor (V1a), the inhibition at 0.2 µM was 2%. In addition, the IC50 on human V2 receptor [1] is 0.045 µM; at human V2 receptor [2], 0.04 µM.
In the case of `CCCS(=O)(=O)N1Cc2ccccc2N(C(=O)c2ccc(NC(=O)c3ccccc3-c3ccccc3)cc2Cl)C[C@H]1CO` [Cpd 10, (S)-Biphenyl-2-carboxylic acid {3-chloro-4-[3-hydroxymethyl-4-(propane-1-sulfonyl)-2,3,4,5-tetrahydrobenzo[e][1,4]diazepine-1-carbonyl]-phenyl}-amide], the inhibition at 0.2 µM at human V-1 receptor (V1a) came out at 2%. The IC50 at human V2 receptor [1] stood at 0.065 µM; on human V2 receptor [2] it was 0.03 µM.
Regarding `O=C(Nc1ccc(C(=O)N2C[C@@H](CO)N(S(=O)(=O)c3ccccc3)Cc3ccccc32)c(Cl)c1)c1ccccc1-c1ccccc1` [Cpd 11, (S)-Biphenyl-2-carboxylic acid [4-(4-benzenesulfonyl-3-hydroxymethyl-2,3,4,5-tetrahydrobenzo[e][1,4]diazepine-1-carbonyl)-3-chloro-phenyl]-amide], the inhibition at 0.2 µM on human V-1 receptor (V1a) is 0%. Besides, the IC50 at human V2 receptor [1] came to 0.23 µM; at human V2 receptor [2], 0.773 µM.
For `CC(=O)N1Cc2ccccc2N(C(=O)c2ccc(NC(=O)c3ccccc3-c3ccccc3)cc2Cl)C[C@H]1CO` [Cpd 12, (S)-Biphenyl-2-carboxylic acid [4-(4-acetyl-3-hydroxymethyl-2,3,4,5-tetrahydro-benzo[e][1,4]diazepine-1-carbonyl)-3-chloro-phenyl]-amide] the same measures were 6%, 0.028 µM and 0.02 µM.
As to “(S)-Biphenyl-2-carboxylic acid [3-chloro-4-(4-methyl-3-morpholino-4-ylmethyl-2,3,4,5-tetrahydrobenzo[e][1,4]diazepine-1-carbonyl)-phenyl]-amide ditrifluoroacetate [Cpd 5]”, the “Binding V1a (% inhib @ 0.2 μM)” value on human V-1 receptor (V1a) turned out to be 0%.

The record behind these values is patent publication US7763605B2, “[1,4]benzodiazepines as vasopressin V2 receptor antagonists” (Janssen Pharmaceutica, N.V., priority 2004, dated 2010).
